Data taken from patent US12570659B2, “Bicyclic heteroaryl compounds useful as IRAK4 inhibitors” (BRISTOL-MYERS SQUIBB COMPANY, priority 2019, dated 2026).

Legend:
[1] = system: TLR2 agonist-stimulated IL-6 in human whole blood; experiment: IRAK4 Whole Blood Assay; format: cell-based; conditions: lipoteichoic acid 10 μg/mL, 5 hours, IL-6 levels
Outline: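 ACD-A anticoagulated human whole blood preincubated with compound 60 min at 37 °C, 5% CO2, then stimulated 5 h with lipoteichoic acid at 10 μg/mL final. IL-6 in supernatants measured by flow cytometry bead assay.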

JAK3 kinase = JAK3 kinase (Homo sapiens (Human), UniProt P52333); experiment: JAK3 Homogeneous Time Resolved Fluorescence (HTRF) Assay; format: binding; conditions: for IC50: competition binding with fluorescein-labeled ATP competitive probe; for Ratio of JAK3 IC50 to IRAK4 IC50: selectivity for IRAK4 over JAK3
Outline: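 IC50 reflects displacement of a fluorescein-labeled ATP-site probe (at its Kd) from 1 nM tagged JAK3, detected via 0.2 nM Tb anti-His or anti-GST antibody. One-hour incubation; 495 and 520 nm emission ratios, background-subtracted, normalized to maximum signal; 11-point percent inhibition, 4-parameter logistic.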

IRAK4 = IRAK4 (Homo sapiens (Human), UniProt Q9NWZ3); experiment: IRAK4 Inhibition Assay; format: biochemical; conditions: ATP 500 μM; IRAK4 0.6 nM; 60 min room temperature
Outline: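 Phosphorylated and unphosphorylated fluorescent substrate were resolved by microfluidic electrophoresis after termination with 35 mM EDTA. The room-temperature kinase reaction lasted 60 min after IRAK4, substrates and test compound were combined; vehicle-only defined 0% and no-enzyme 100% inhibition.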

IRAK4, sequence (Q9NWZ3 whole entry, species assumed): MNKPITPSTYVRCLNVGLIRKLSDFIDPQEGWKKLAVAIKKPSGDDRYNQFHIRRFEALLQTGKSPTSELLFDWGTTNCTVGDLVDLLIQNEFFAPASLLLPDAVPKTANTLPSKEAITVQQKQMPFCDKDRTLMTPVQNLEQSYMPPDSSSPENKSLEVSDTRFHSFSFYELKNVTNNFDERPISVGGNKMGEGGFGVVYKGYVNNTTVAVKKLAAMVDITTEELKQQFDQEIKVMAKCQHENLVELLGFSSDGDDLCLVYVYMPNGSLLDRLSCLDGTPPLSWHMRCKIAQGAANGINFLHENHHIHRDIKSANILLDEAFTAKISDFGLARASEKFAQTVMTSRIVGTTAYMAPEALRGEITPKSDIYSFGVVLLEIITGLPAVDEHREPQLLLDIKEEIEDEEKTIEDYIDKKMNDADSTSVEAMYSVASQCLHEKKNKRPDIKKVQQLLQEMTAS
JAK3 kinase, sequence (P52333 whole entry): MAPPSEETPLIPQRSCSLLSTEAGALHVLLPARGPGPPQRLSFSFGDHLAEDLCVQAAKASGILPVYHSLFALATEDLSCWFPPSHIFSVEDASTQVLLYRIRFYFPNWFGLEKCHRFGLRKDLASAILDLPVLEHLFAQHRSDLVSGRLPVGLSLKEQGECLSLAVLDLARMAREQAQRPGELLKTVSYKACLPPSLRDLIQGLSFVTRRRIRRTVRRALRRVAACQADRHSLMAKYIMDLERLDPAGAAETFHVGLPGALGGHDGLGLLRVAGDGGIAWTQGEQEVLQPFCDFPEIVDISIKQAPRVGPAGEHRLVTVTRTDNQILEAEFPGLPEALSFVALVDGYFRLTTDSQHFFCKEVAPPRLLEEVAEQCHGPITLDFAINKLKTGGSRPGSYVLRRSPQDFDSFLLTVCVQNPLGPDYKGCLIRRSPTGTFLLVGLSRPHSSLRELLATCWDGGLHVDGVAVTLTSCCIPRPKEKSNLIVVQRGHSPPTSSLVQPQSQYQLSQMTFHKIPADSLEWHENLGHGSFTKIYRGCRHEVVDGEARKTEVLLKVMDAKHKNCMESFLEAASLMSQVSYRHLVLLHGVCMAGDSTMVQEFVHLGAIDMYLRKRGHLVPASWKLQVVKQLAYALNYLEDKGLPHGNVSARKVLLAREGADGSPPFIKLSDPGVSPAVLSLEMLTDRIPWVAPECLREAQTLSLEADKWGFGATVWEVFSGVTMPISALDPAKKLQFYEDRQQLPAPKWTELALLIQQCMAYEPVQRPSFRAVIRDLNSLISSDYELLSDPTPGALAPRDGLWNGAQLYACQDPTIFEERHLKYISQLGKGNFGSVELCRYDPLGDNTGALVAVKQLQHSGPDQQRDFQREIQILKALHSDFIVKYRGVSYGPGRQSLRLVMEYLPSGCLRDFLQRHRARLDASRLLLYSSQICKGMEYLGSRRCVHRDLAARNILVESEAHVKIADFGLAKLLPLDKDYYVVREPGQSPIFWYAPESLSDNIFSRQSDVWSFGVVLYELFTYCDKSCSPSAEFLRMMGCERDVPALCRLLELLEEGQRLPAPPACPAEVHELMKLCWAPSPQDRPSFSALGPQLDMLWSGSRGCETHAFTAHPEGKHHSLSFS

Row | SMILES | IC50 [1] | IC50 (JAK3 kinase) | Ratio of JAK3 IC50 to IRAK4 IC50 (JAK3 kinase) | IC50 (IRAK4)
1 | COC(=O)Nc1cc(-c2cc3c(NC(C)C)c(C(=O)NC[C@@H](F)C(C)(C)O)cnn3c2)ccn1 [Example 46, methyl (R)-(4-(3-((2-fluoro-3-hydroxy-3-methylbutyl)carbamoyl)-4-(isopropylamino)pyrrolo[1,2-b]pyridazin-6-yl)pyridin-2-yl) carbamate] | 6230 nM | > 50000 nM | >5495 | 9.1 nM
2 | COC(=O)N[C@H]1CC[C@H](NC(=O)c2cnn3cc(-c4cccnc4)cc3c2NC(C)C)CC1 [Example 49, methyl ((1r,4r)-4-(4-(isopropylamino)-6-(pyridin-3-yl)pyrrolo[1,2-b]pyridazine-3-carboxamido)cyclohexyl)carbamate] | > 10000 nM | > 50000 nM | >4425 | 11.3 nM
3 | CC(=O)N[C@H]1CC[C@H](NC(=O)c2cnn3cc(-c4cccnc4)cc3c2NC(C)C)CC1 [Example 48, N-((1r,4r)-4-acetamidocyclohexyl)-4-(isopropylamino)-6-(pyridin-3-yl)pyrrolo[1,2-b]pyridazine-3-carboxamide] | 850 nM | > 50000 nM | >8475 | 5.9 nM
4 | CC(C)Nc1c(C(=O)N[C@H]2CC[C@H](N)CC2)cnn2cc(-c3ccncc3)cc12 [Example 54, N-((1r,4r)-4-aminocyclohexyl)-4-(isopropylamino)-6-(pyridin-4-yl)pyrrolo[1,2-b]pyridazine-3-carboxamide] | 1220 nM | > 50000 nM | >5495 | 9.1 nM
5 | CC(C)Nc1c(C(=O)N[C@H]2CC[C@H](c3nc[nH]n3)CC2)cnn2cc(-c3ccncc3)cc12 [Example 90, N-((1r,4r)-4-(1H-1,2,4-triazol-3-yl)cyclohexyl)-4-(isopropylamino)-6-(pyridin-4-yl)pyrrolo[1,2-b]pyridazine-3-carboxamide] | 630 nM | 10000 nM | 2703 | 3.7 nM
6 | CC(=O)N[C@H]1CC[C@H](NC(=O)c2cnn3c(Cl)c(-c4ccncc4)cc3c2NC(C)C)CC1 [Example 80, N-((1r,4r)-4-acetamidocyclohexyl)-7-chloro-4-(isopropylamino)-6-(pyridin-4-yl)pyrrolo[1,2-b]pyridazine-3-carboxamide] | 720 nM | ~35000 nM | ~17500 | 2 nM
7 | CC(=O)N[C@H]1CC[C@H](NC(=O)c2cnn3cc(-c4ccncc4C)cc3c2NC(C)C)CC1 [Example 56, N-((1r,4r)-4-acetamidocyclohexyl)-4-(isopropylamino)-6-(3-methylpyridin-4-yl)pyrrolo[1,2-b]pyridazine-3-carboxamide] | 810 nM | > 50000 nM | >31250 | 1.6 nM
8 | Cc1cc(F)ncc1-c1cc2c(NC(C)C)c(C(=O)N[C@H]3CC[C@H](c4nc[nH]n4)CC3)cnn2c1 [Example 91, N-((1r,4r)-4-(1H-1,2,4-triazol-3-yl)cyclohexyl)-6-(6-fluoro-4-methylpyridin-3-yl)-4-(isopropylamino)pyrrolo[1,2-b]pyridazine-3-carboxamide] | 1460 nM | > 50000 nM | >9615 | 5.2 nM
9 | CC(C)Nc1c(C(=O)NC[C@@H](F)C(C)(C)O)cnn2cc(-c3ccncc3)cc12 [Example 5, (R)—N-(2-fluoro-3-hydroxy-3-methylbutyl)-4-(isopropylamino)-6-(pyridin-4-yl)pyrrolo[1,2-b]pyridazine-3-carboxamide] | 4600 nM | 29000 nM | 3152 | 9.2 nM
10 | CC(C)Nc1c(C(=O)N[C@H]2CC[C@H](C(=O)N3CCOCC3)CC2)cnn2cc(-c3ccncc3F)cc12 [Example 84, 6-(3-fluoropyridin-4-yl)-4-(isopropylamino)-N-((1r,4r)-4-(morpholine-4-carbonyl)cyclohexyl)pyrrolo[1,2-b]pyridazine-3-carboxamide] | 1040 nM | > 50000 nM | >18519 | 2.7 nM
